In US10894784B2, “Heteroarylbenzimidazole compounds” (BAYER PHARMA AKTIENGESELLSCHAFT, priority 2015, dated 2021) one finds IC50 data, which are given here for 26 molecules.

This test has as its target TBK1 (Homo sapiens (Human), UniProt Q9UHD2). The test can be described thus: TBK1 low ATP kinase assay (in vitro assay 1). The test is classed as biochemical. The settings on record: in vitro assay 1, read-out: TBK1 low ATP kinase assay IC50.

Chain of TBK1 (Q9UHD2 whole entry): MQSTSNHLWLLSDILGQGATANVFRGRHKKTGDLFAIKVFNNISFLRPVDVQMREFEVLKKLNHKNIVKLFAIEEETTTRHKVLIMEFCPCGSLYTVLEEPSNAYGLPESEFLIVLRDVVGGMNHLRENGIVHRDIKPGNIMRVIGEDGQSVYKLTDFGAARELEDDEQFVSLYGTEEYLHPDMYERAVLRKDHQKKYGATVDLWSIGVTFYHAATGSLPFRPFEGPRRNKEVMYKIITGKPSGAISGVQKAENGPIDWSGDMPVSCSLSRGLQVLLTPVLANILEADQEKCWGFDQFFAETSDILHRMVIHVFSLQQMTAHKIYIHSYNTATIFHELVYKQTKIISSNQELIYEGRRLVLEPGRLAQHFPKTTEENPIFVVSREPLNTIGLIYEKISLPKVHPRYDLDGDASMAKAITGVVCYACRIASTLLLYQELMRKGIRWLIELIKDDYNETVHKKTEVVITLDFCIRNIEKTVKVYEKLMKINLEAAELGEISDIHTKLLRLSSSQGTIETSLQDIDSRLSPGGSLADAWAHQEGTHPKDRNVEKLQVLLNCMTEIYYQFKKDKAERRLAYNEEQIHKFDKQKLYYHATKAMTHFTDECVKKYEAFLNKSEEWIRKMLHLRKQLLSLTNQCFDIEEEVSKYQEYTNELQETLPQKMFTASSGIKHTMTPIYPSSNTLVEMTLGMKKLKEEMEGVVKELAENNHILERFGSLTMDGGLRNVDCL

Broadly, the IC50 is the concentration that inhibits the measured activity by half. As for `CC(c1ccnc(Nc2nc3ccc(-c4cc(N5CCCC5)ncn4)cc3[nH]2)c1)N1CCN(C(=O)C2(C(F)(F)F)CC2)CC1` (single isomer, unassigned) [Example 117.04, (4-{(1R or 1S)-1-[2-({6-[6-(pyrrolidin-1-yl)pyrimidin-4-yl]-1H-benzimidazol-2-yl}amino)pyridin-4-yl]ethyl}piperazin-1-yl)[1-(trifluoromethyl)cyclopropyl]methanone], the IC50 was 0.819 nM.

As for `CC(c1ccnc(Nc2nc3ccc(-c4cc(OCC(F)(F)C(F)(F)F)ncn4)cc3[nH]2)c1)N1CCN(C(=O)CC(F)(F)F)CC1` (single isomer, unassigned) [Example 166.02, 3,3,3-trifluoro-1-(4-{(1R or 1S)-1-[2-({6-[6-(2,2,3,3,3-pentafluoropropoxy)pyrimidin-4-yl]-1H-benzimidazol-2-yl}amino)pyridin-4-yl]ethyl}piperazin-1-yl)propan-1-one], the 50% inhibitory concentration (IC50) came out at 20.5 nM.

Turning to `Cc1noc(C)c1-c1cc(-c2ccc3nc(Nc4cc(CN5CCN(C(=O)OC(C)(C)C)CC5)ccn4)[nH]c3c2)ncn1` [Example 92.01, tert-butyl 4-{[2-({6-[6-(3,5-dimethyl-1,2-oxazol-4-yl)pyrimidin-4-yl]-1H-benzimidazol-2-yl}amino)pyridin-4-yl]methyl}piperazine-1-carboxylate], the IC50 turned out to be 88 nM.

In the case of `Cc1cc(-c2ccc3nc(Nc4cc(CN5CCN(C(=O)CC(F)(F)F)CC5)ccn4)[nH]c3c2)c(F)cn1` [Example 131.02, 3,3,3-trifluoro-1-{4-[(2-{[6-(5-fluoro-2-methylpyridin-4-yl)-1H-benzimidazol-2-yl]amino}pyridin-4-yl)methyl]piperazin-1-yl}propan-1-one], the IC50 came out at 62 nM.

As to `COc1nc(-c2ccc3nc(Nc4cc(CN5CCN(C(=O)CC(F)(F)F)CC5)ccn4)[nH]c3c2)cc(N(C)C)n1` [Example 189.02, 1-(4-{[2-({6-[6-(dimethylamino)-2-methoxypyrimidin-4-yl]-1H-benzimidazol-2-yl}amino)pyridin-4-yl]methyl}piperazin-1-yl)-3,3,3-trifluoropropan-1-one], the IC50 amounted to 28.6 nM.

`CC(C)(O)c1cc(-c2ccc3nc(Nc4cc(CN5CCN(C(=O)CC(F)(F)F)CC5)ccn4)[nH]c3c2)ncn1` [Example 96.02, 3,3,3-trifluoro-1-(4-{[2-({6-[6-(2-hydroxypropan-2-yl)pyrimidin-4-yl]-1H-benzimidazol-2-yl}amino)pyridin-4-yl]methyl}piperazin-1-yl)propan-1-one]: the IC50 stood at 22 nM.

As to `Cc1noc(-c2ccc3nc(Nc4cc(CN5CCN(c6ncccn6)CC5)ccn4)[nH]c3c2)n1` [Example 101.05, 6-(3-methyl-1,2,4-oxadiazol-5-yl)-N-(4-{[4-(pyrimidin-2-yl)piperazin-1-yl]methyl}pyridin-2-yl)-1H-benzimidazol-2-amine], the IC50 is 780 nM.

With `COc1cnc(C)cc1-c1ccc2nc(Nc3cc(CN4CCN(C(=O)C5CC5)CC4)ccn3)[nH]c2c1` [Example 07.01, cyclopropyl{4-[(2-{[6-(5-methoxy-2-methylpyridin-4-yl)-1H-benzimidazol-2-yl]amino}pyridin-4-yl)methyl]piperazin-1-yl}methanone], the IC50 is 224 nM.

On to `O=C(CC(F)(F)F)N1CCN(Cc2ccnc(Nc3nc4ccc(-c5cc(OCC6(C(F)(F)F)CC6)ncn5)cc4[nH]3)c2)CC1` [Example 158.02, 3,3,3-trifluoro-1-{4-[(2-{[6-(6-{[1-(trifluoromethyl)cyclopropyl]methoxy}pyrimidin-4-yl)-1H-benzimidazol-2-yl]amino}pyridin-4-yl)methyl]piperazin-1-yl}propan-1-one], for which the IC50 came out at 21 nM.

As for `Cc1cc(CN2CCN(C(=O)C3CC3)CC2)cc(Nc2nc3ccc(-c4ccncn4)cc3[nH]2)n1` [Example 23.02.02, cyclopropyl{4-[(2-methyl-6-{[6-(pyrimidin-4-yl)-1H-benzimidazol-2-yl]amino}pyridin-4-yl)methyl]piperazin-1-yl}methanone], the 50% inhibitory concentration (IC50) came to 13.6 nM.

As to `CC(=O)N1CCN(Cc2ccnc(Nc3nc4ccc(-c5ncnc(C)c5C)cc4[nH]3)c2)CC1` [Example 32.03, 1-{4-[(2-{[6-(5,6-dimethylpyrimidin-4-yl)-1H-benzimidazol-2-yl]amino}pyridin-4-yl)methyl]piperazin-1-yl}ethanone], the IC50 stood at 5190 nM.

As for `CN(C)c1cc(-c2ccc3nc(Nc4cc(CN5CCN(C(=O)CC(F)(F)F)CC5)ccn4)[nH]c3c2)ncn1` [Example 143.02, 1-(4-{[2-({6-[6-(dimethylamino)pyrimidin-4-yl]-1H-benzimidazol-2-yl}amino)pyridin-4-yl]methyl}piperazin-1-yl)-3,3,3-trifluoropropan-1-one], the half-maximal inhibitory concentration (IC50) worked out at 8.2 nM.

As to `CC(C)(C)OC(=O)N1CCN(Cc2ccnc(Nc3nc4ccc(-c5ccnc(N6CCOCC6)c5)cc4[nH]3)c2)CC1` [Example 134.01, tert-butyl 4-{[2-({6-[2-(morpholin-4-yl)pyridin-4-yl]-1H-benzimidazol-2-yl}amino)pyridin-4-yl]methyl}piperazine-1-carboxylate], the IC50 stood at 57 nM.

For the molecule `CC(c1ccnc(Nc2nc3ccc(-c4cnn(CC5CC5(F)F)c4)c(Cl)c3[nH]2)c1)N1CCN(C(=O)C2CC2)CC1` (single isomer, unassigned) [Example 70.02, {4-[(1R or 1S)-1-(2-{[7-chloro-6-(1-{[(1RS)-2,2-difluorocyclopropyl]methyl}-1H-pyrazol-4-yl)-1H-benzimidazol-2-yl]amino}pyridin-4-yl)ethyl]piperazin-1-yl}(cyclopropyl)methanone], the 50% inhibitory concentration (IC50) worked out at 0.73 nM.

With `Cc1nc(-c2ccc3nc(Nc4cc(CN5CCN(C(=O)CC(F)(F)F)CC5)ccn4)[nH]c3c2)c2ccsc2n1` [Example 104.01, 3,3,3-trifluoro-1-{4-[(2-{[6-(2-methylthieno[2,3-d]pyrimidin-4-yl)-1H-benzimidazol-2-yl]amino}pyridin-4-yl)methyl]piperazin-1-yl}propan-1-one], the IC50 is 2600 nM.

Regarding `O=C(C1CCC1)N1CCN(Cc2ccnc(Nc3nc4ccc(-c5ccnc(OCC6CC6)n5)cc4[nH]3)c2)CC1` [Example 62.01.02, cyclobutyl(4-{[2-({6-[2-(cyclopropylmethoxy)pyrimidin-4-yl]-1H-benzimidazol-2-yl}amino)pyridin-4-yl]methyl}piperazin-1-yl)methanone], the IC50 was determined as 9.54 nM.

As to `CC(c1ccnc(Nc2nc3ccc(-c4cc(N(C)C)ncn4)cc3[nH]2)c1)N1CCN(C(=O)C2CC2)CC1` (single isomer, unassigned) [Example 100.03, cyclopropyl(4-{(1R or 1S)-1-[2-({6-[6-(dimethylamino)pyrimidin-4-yl]-1H-benzimidazol-2-yl}amino)pyridin-4-yl]ethyl}piperazin-1-yl)methanone], the IC50 turned out to be 2 nM.

With `O=C(CC1CC1)N1CCN(Cc2ccnc(Nc3nc4ccc(-c5ccncn5)cc4[nH]3)c2)CC1` [Example 23.01.01, 2-cyclopropyl-1-{4-[(2-{[6-(pyrimidin-4-yl)-1H-benzimidazol-2-yl]amino}pyridin-4-yl)methyl]piperazin-1-yl}ethanone], the IC50 is 33.4 nM.

Turning to `COc1c(OCC2CC2)ncnc1-c1ccc2nc(Nc3cc(CN4CCN(C(=O)OC(C)(C)C)CC4)ccn3)[nH]c2c1` [Example 65.01.01, tert-butyl 4-{[2-({6-[6-(cyclopropylmethoxy)-5-methoxypyrimidin-4-yl]-1H-benzimidazol-2-yl}amino)pyridin-4-yl]methyl}piperazine-1-carboxylate], the half-maximal inhibitory concentration (IC50) was 255 nM.

Regarding `O=C(C1CC1)N1CCN(Cc2ccnc(Nc3nc4ccc(-c5cc(NC6CCC6)ncn5)cc4[nH]3)c2)CC1` [Example 152.03, (4-{[2-({6-[6-(cyclobutylamino)pyrimidin-4-yl]-1H-benzimidazol-2-yl}amino)pyridin-4-yl]methyl}piperazin-1-yl)(cyclopropyl)methanone], the IC50 came to 0.96 nM.

On to `O=C(CC(F)(F)F)N1CCN(Cc2ccnc(Nc3nc4ccc(-c5ncnc(NCC6CC6)c5F)cc4[nH]3)c2)CC1` [Example 195.02, 1-[4-({2-[(6-{6-[(cyclopropylmethyl)amino]-5-fluoropyrimidin-4-yl}1H-benzimidazol-2-yl)amino]pyridin-4-yl}methyl)piperazin-1-yl]-3,3,3-trifluoropropan-1-one], for which the concentration for half-maximal inhibition (IC50) worked out at 33.7 nM.

Regarding `Cc1cc(-c2ccc3nc(Nc4cc(C(C)N5CCN(C(=O)C6CCC6)CC5)ccn4)[nH]c3c2)ncn1` (single isomer, unassigned) [Example 30.03.02.B, cyclobutyl{4-[(1S or 1R)-1-(2-{[6-(6-methylpyrimidin-4-yl)-1H-benzimidazol-2-yl]amino}pyridin-4-yl)ethyl]piperazin-1-yl}methanone], the IC50 worked out at 27.5 nM.

In the case of `CCOc1c(-c2ccncc2OC)ccc2nc(Nc3cc(CN4CCN(C(=O)C5CC5)CC4)ccn3)[nH]c12` [Example 51.03, cyclopropyl{4-[(2-{[7-ethoxy-6-(3-methoxypyridin-4-yl)-1H-benzimidazol-2-yl]amino}pyridin-4-yl)methyl]piperazin-1-yl}methanone], the IC50 is 113 nM.

With `Cc1noc(-c2ccc3nc(Nc4cc(CN5CCN(C(=O)CC(F)(F)F)CC5)ccn4)[nH]c3c2)n1` [Example 16.01.02, 3,3,3-trifluoro-1-{4-[(2-{[6-(3-methyl-1,2,4-oxadiazol-5-yl)-1H-benzimidazol-2-yl]amino}pyridin-4-yl)methyl]piperazin-1-yl}propan-1-one], the IC50 worked out at 109 nM.

For the molecule `Cc1noc(-c2ccc3nc(Nc4cc(CN5CCN(C(=O)c6cccnc6)CC5)ccn4)[nH]c3c2)n1` [Example 101.26, {4-[(2-{[6-(3-methyl-1,2,4-oxadiazol-5-yl)-1H-benzimidazol-2-yl]amino}pyridin-4-yl)methyl]piperazin-1-yl}(pyridin-3-yl)methanone], the IC50 turned out to be 310 nM.

With `Cc1nccc(-c2ccc3nc(Nc4cc(C(C)N5CCN(C(=O)C6CC6)CC5)ccn4)[nH]c3c2)n1` (single isomer, unassigned) [Example 24.05.04.B, cyclopropyl{4-[(1S or 1R)-1-(2-{[6-(2-methylpyrimidin-4-yl)-1H-benzimidazol-2-yl]amino}pyridin-4-yl)ethyl]piperazin-1-yl}methanone], the concentration for half-maximal inhibition (IC50) came to 33.9 nM.
